The results in this text go back to PubChem BioAssay (NCI).

Some test systems named below: UO-31 renal; EKVX NSCLC; LOX IMVI melanoma; HCT-15 colon; RXF 393 renal; MALME-3M melanoma; SK-MEL-2 melanoma; DU-145 prostate; T-47D breast; BT-549 breast.
Test in all cases: DTP human tumour cell line panel, 48 h

Broadly, the TGI is the concentration giving total growth inhibition. The low end stands for greater sensitivity of the cells, the high end for lower sensitivity of the cells. Broadly, the GI50 is the concentration that inhibits growth by half.

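Cells were grown in 96-well plates and exposed to each compound for 48 hours at five concentrations; endpoints were interpolated linearly between bracketing concentrations, or set to the highest concentration if not reached. At the GI50, growth is halved. TGI: concentration producing complete growth inhibition.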

With `Cn1nc(-c2ccccc2)c2c(/C=C/c3ccc(Cl)cc3)onc2c1=O`, the TGI in the experiment with UO-31 renal was 71.4 µM; in the experiment on EKVX NSCLC it was over 100 µM; with LOX IMVI melanoma, 95.4 µM; with HCT-15 colon it was over 100 µM; with RXF 393 renal, over 100 µM.

Regarding `COC(=O)C(=NNc1ccccc1[N+](=O)[O-])C(=O)OC`, the TGI in the experiment with MALME-3M melanoma, with EKVX NSCLC, in the experiment with SK-MEL-2 melanoma, in the experiment with LOX IMVI melanoma and in the experiment on RXF 393 renal was over 100 µM in each case.

Take `CC12CCCC(C#N)(C1)OC2=O` (centres undefined): the TGI with UO-31 renal, with MALME-3M melanoma, in the experiment with EKVX NSCLC, in the experiment on SK-MEL-2 melanoma and in the experiment with RXF 393 renal was over 100 µM in each case.

Regarding `CCc1cccc(C)c1N1C(=O)C(=O)C(c2nc3ccccc3o2)/C(=N/NC(=S)NN)C1=O` (centres undefined), the TGI in the experiment on UO-31 renal, in the experiment with MALME-3M melanoma, in the experiment on EKVX NSCLC, in the experiment on SK-MEL-2 melanoma, in the experiment with LOX IMVI melanoma and in the experiment with HCT-15 colon was over 100 µM throughout. Further, the concentration for total growth inhibition (TGI) with RXF 393 renal was over 100 µM.

On to `O=C(CN(Cc1ccccc1)Cc1ccccc1)N1CCc2c([nH]c3ccccc23)C1c1cccnc1` (centres undefined), for which the TGI in the experiment with UO-31 renal is 9.54 µM; with EKVX NSCLC it was over 100 µM; in the experiment with LOX IMVI melanoma, 39.5 µM; in the experiment with HCT-15 colon, over 100 µM.

With `O=C[C@]12CC=C3OC4OC5(CCCCC5)OC4[C@H]3[C@H]1C(=O)C=CC2=O` (some centres undefined), the TGI is 40.8 µM in the experiment on UO-31 renal; 34.4 µM with MALME-3M melanoma; 39.8 µM in the experiment with EKVX NSCLC; over 100 µM with SK-MEL-2 melanoma; 43.4 µM in the experiment on HCT-15 colon; 25.9 µM with RXF 393 renal.

For `CCCCOC(=O)/C=C\C(=O)NC(N)=O`, the GI50 with UO-31 renal was 13.4 µM; with MALME-3M melanoma, 14.7 µM; in the experiment with EKVX NSCLC it was 23.1 µM; with DU-145 prostate it was 10.1 µM; in the experiment on LOX IMVI melanoma, 17.4 µM; with HCT-15 colon it was 15.6 µM. The GI50 with T-47D breast was 14.5 µM; in the experiment on RXF 393 renal it was 12.7 µM. In addition, the TGI in the experiment on UO-31 renal was 31 µM; with MALME-3M melanoma, 34.5 µM; in the experiment with EKVX NSCLC, 56.9 µM; in the experiment with DU-145 prostate, over 100 µM; in the experiment on LOX IMVI melanoma, 32.4 µM; in the experiment with HCT-15 colon it was 38.3 µM. The values for the TGI in the experiment on T-47D breast and with RXF 393 renal were 95.5 µM and 27.1 µM, respectively.

As to `N.N.N.N.N.N#Cc1nn[n-]n1.[Cl-].[Co+3]`, the GI50 in the experiment with UO-31 renal, with MALME-3M melanoma, in the experiment on EKVX NSCLC, in the experiment on SK-MEL-2 melanoma, in the experiment on LOX IMVI melanoma and in the experiment with HCT-15 colon was over 100 µM in each case. The GI50 with RXF 393 renal is over 100 µM. Further, the TGI in the experiment on UO-31 renal, in the experiment on MALME-3M melanoma, in the experiment on EKVX NSCLC, in the experiment on SK-MEL-2 melanoma, with LOX IMVI melanoma and in the experiment on HCT-15 colon was over 100 µM each time. In addition, the TGI in the experiment on RXF 393 renal is over 100 µM.

Consider `COc1ccc(CN2C(=O)/C(=C\C(=O)c3ccc(OCCN4CCCC4)cc3)c3ccccc32)cc1`, for which the GI50 in the experiment on BT-549 breast is 10.6 µM; in the experiment on UO-31 renal it was 1.66 µM; in the experiment on MALME-3M melanoma it was 1.75 µM; with EKVX NSCLC, 11.3 µM; in the experiment with SK-MEL-2 melanoma it was 17.1 µM; with DU-145 prostate, 2.32 µM. Further, the GI50 is 1.65 µM with HCT-15 colon and 1.95 µM with RXF 393 renal. Further, the TGI was 23.3 µM in the experiment on BT-549 breast; 3.11 µM in the experiment with UO-31 renal; 3.35 µM with MALME-3M melanoma; 34.2 µM in the experiment with EKVX NSCLC; 37.4 µM in the experiment on SK-MEL-2 melanoma; 5.65 µM in the experiment with DU-145 prostate. The TGI came to 3.24 µM in the experiment on HCT-15 colon and 3.66 µM with RXF 393 renal.

Consider `CC[O-].CC[O-].COc1ccc(C(=O)[CH-]C(C)=O)cc1OC.COc1ccc(C(=O)[CH-]C(C)=O)cc1OC.[Ti+4]`, for which the GI50 in the experiment on UO-31 renal was 11.7 µM; in the experiment with MALME-3M melanoma it was 35.1 µM; with EKVX NSCLC, 24.6 µM; in the experiment on SK-MEL-2 melanoma, 78.3 µM; with LOX IMVI melanoma it was 80.3 µM; in the experiment with HCT-15 colon it was 90.1 µM. Besides, the GI50 in the experiment on RXF 393 renal was 34.1 µM. Also, the TGI in the experiment with UO-31 renal was 49.7 µM; in the experiment on MALME-3M melanoma it was 86.6 µM; in the experiment with EKVX NSCLC, 79.6 µM; in the experiment on SK-MEL-2 melanoma, over 100 µM; with LOX IMVI melanoma, over 100 µM; in the experiment with HCT-15 colon, over 100 µM. The same molecule yielded a TGI in the experiment with RXF 393 renal of 99.7 µM.

`O=CC1CCC=CC1NC(=O)OCc1ccccc1` (centres undefined): the TGI in the experiment on UO-31 renal, in the experiment on EKVX NSCLC, in the experiment with SK-MEL-2 melanoma, in the experiment on LOX IMVI melanoma, in the experiment with HCT-15 colon and in the experiment on RXF 393 renal was over 100 µM in each case.

In the case of `Cc1ccc2nc(Sc3c([N+](=O)[O-])ncn3C)[nH]c2c1`, the TGI was 88.4 µM in the experiment with UO-31 renal; 47.4 µM in the experiment on MALME-3M melanoma; 63.9 µM with EKVX NSCLC; over 100 µM in the experiment with LOX IMVI melanoma; 32.4 µM in the experiment with HCT-15 colon; 39.5 µM with RXF 393 renal.

Turning to `N#CC(C#N)=Cc1ccc(C(O)P(=O)(O)O)cc1` (centres undefined), the TGI with UO-31 renal, in the experiment with MALME-3M melanoma, in the experiment with EKVX NSCLC, with SK-MEL-2 melanoma, in the experiment on LOX IMVI melanoma and with HCT-15 colon was over 100 µM throughout.

In the case of `O=C1c2cccc([N+](=O)[O-])c2C(=O)c2nccnc21`, the TGI was 2.6 µM in the experiment with UO-31 renal; 3.04 µM in the experiment on MALME-3M melanoma; 3.92 µM in the experiment with EKVX NSCLC; 2.9 µM in the experiment with SK-MEL-2 melanoma; 2.68 µM in the experiment on LOX IMVI melanoma; 2.92 µM with HCT-15 colon. In addition, in the experiment with RXF 393 renal, the total growth inhibition concentration (TGI) came out at 3.71 µM.

As to `COC(=O)C(=O)C(C#N)c1cccc(Cl)c1` (centres undefined), the TGI in the experiment on UO-31 renal, in the experiment with MALME-3M melanoma, with EKVX NSCLC, in the experiment on SK-MEL-2 melanoma, with LOX IMVI melanoma and with HCT-15 colon was over 100 µM in each case. Further, the concentration for total growth inhibition (TGI) in the experiment with RXF 393 renal was over 100 µM.

As to `CC12CC/C(=N/NC(N)=O)C3C1CCCC32`, the TGI with UO-31 renal, with MALME-3M melanoma, in the experiment with SK-MEL-2 melanoma, in the experiment on LOX IMVI melanoma and in the experiment on HCT-15 colon was over 100 µM in each case.
